Measured values reported in patent US20020073447A1, “Acquired resistance genes and uses thereof” (priority 1996, published 2002).

How the values were obtained:
NPR1-GFP = biological target: T1, NPR1-GFP (Arabidopsis thaliana, UniProt P93002); assay: Subcellular localization of NPR1-GFP by confocal microscopy; type: in vivo; conditions: 35S-NPR1-GFP eleven-day-old seedlings grown on MS with SA or INA
T1 construct: expressed in transfected cells; host or cells: Transgenic Arabidopsis npr1-1 and npr1-2 mutant plants (seedlings; leaf mesophyll and guard cells), CaMV 35S promoter
T1 sequence (P93002 1-593): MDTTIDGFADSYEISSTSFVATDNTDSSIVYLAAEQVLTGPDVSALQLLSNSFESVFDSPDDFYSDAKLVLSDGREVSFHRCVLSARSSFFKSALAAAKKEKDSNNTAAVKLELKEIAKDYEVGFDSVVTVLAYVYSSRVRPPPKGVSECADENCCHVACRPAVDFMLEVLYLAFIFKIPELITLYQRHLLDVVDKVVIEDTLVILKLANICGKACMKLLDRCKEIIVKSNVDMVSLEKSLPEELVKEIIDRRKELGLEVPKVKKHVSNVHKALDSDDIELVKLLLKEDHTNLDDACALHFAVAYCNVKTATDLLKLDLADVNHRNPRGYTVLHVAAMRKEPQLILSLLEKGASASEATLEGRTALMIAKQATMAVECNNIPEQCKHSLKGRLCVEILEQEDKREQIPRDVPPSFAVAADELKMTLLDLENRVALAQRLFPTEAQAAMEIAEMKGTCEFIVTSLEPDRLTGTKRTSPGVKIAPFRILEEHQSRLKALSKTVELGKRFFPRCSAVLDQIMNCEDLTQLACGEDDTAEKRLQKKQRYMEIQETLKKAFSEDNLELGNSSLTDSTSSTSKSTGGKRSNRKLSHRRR
Protocol: To elucidate the induction mechanism and the molecular function of the protein, the subcellular localization of NPR1 was determined by using standard reporter gene fusion construct analysis. The green fluorescent protein (GFP) gene was fused to the carboxyl end of the NPR1 cDNA driven by the constitutive CaMV 35S promoter, and the 35S-NPR1-GFP construct was used to transform npr1 mutants, npr1-1 and npr1-2, according to standard methods.
To examine the subcellular localization of the NPR1 protein, the 35S-NPR1-GFP and 35S-mGFP transgenic lines were grown in MS medium in the presence or absence of the SAR-inducing chemicals SA or INA. Eleven-day-old seedlings were subsequently examined using confocal microscopy to detect localization of NPR1-GFP and mGFP. […] In the 35S-mGFP transformants, green fluorescence was detected in the cytoplasm as well as in the nuclei, and SA and INA treatments had no effect on the localization of the protein. […] In the guard cells, the NPR1 protein was localized in the nuclei even without an SAR induction, an intriguing observation because constitutive activation of defense mechanisms in these cells may be necessary to fend off microbial pathogens from gaining entry into the plant through stomata. […] Consistent with this, the following two potential nuclear localization sequences (NLS's) were found in NPR1: […]

PR1 gene = assay: RNA blot analysis of PR1 induction; type: in vivo, Arabidopsis thaliana; conditions: leaves in 0.5 mM INA for twenty-four hours, or SA
Protocol: Transformants of npr1-2 were grown (22° C. in fourteen hours of light) and selected on MS medium agar (Murashige and Skoog, Physiol Plant. 15:473-497, 1962) containing 2% sucrose, 50 μg/mL kanamycin, and 100 μg/mL ampicillin. Kanamycin-resistant transformants which developed true leaves and healthy roots were transplanted to soil. After two weeks of growth in soil at 22° C. in fourteen hours of light per day, leaves were collected from three transformants of each cosmid clone and soaked in 0.5 mM INA solution for twenty-four hours at 22° C. in fourteen hours of light per day. Leaf tissues were then collected and frozen in liquid nitrogen. Total RNA was extracted from these leaf tissues, and an RNA blot was prepared as described by Cao et al. (Plant Cell 6:1583-1592, 1994). The blot was probed with a PR1-specific probe (a PCR product obtained by amplifying genomic Arabidopsis DNA with PR1-specific primers (sense primer 5′ […]3′ (SEQ ID NO: 19); anti-sense primer 5′ […]3′ (SEQ ID NO: 20)).
These variations were likely to be the result of “position-effects,” the effect of the insertion site in the chromosome on the expression of the transgene. Cosmid clones 21A4-4-3-1, 21A4-6-1-1, 21A4-P5-1, and 21A4-2-1 restored the ability of the npr1-2 mutant to respond to INA induction and, therefore, complemented the npr1-2 mutation.
Transformants carrying each cosmid were also tested for SA induction of PR1 expression by RNA blot analysis Examples of SA induction are shown in FIG. 2A.

[1] = tested on: Pseudomonas syringae pv maculicola ES4326; assay: Growth of P.s. maculicola ES4326 in SA-/INA-pretreated plants; type: in vivo; conditions: for growth of P.s. maculicola ES4326 lower than the untreated control / growth of P.s. maculicola ES4326: wild-type plants treated two days before infection; for growth of P.s. maculicola ES4326: 0 to 3.0 days after infiltration
Arabidopsis thaliana = assay: Plant tolerance to SA or INA treatment (growth, symptoms); type: in vivo; conditions: wild-type and npr1-1 plants; 1 mM SA, 0.65 mM INA
BGL2-GUS reporter gene = assay: Quantitative GUS assay of BGL2-GUS reporter plants grown on SA or INA; type: in vivo, Arabidopsis thaliana; conditions: 0.5 mM SA, 0.1 mM INA
Protocol: The M2 seeds were germinated on MS medium with the addition of 0.8% agar, 0.5 mg/mL Mes (2-(N-morpholino)ethane-sulfonic acid), pH 5.7, 2% sucrose, 50 μg/mL kanamycin, and 100 μg/mL ampicillin. […] After incubation for fifteen days, each seedling to be assayed was numbered, and a single leaf was then removed from each seedling and put into the corresponding sample well of a ninety-six-well microtiter plate that contained 100 μL of […] (GUS) substrate solution (50 mM Na2HPO4, pH 7.0, 10 mM Na2EDTA, 0.1% Triton X-100, 0.1% sarkosyl, 0.7 μL/mL β-mercaptoethanol, and 0.7 mg/mL 4-methylumbelliferyl β-D-glucuronide). After all the samples were collected, the microtiter plate was placed under vacuum for two minutes to infiltrate the samples and then incubated at 37° C. overnight. Samples were examined for the fluorescent product of GUS activity (4-methylumbellifone) using a long-wavelength UV light. […] This procedure was repeated in the progeny of these putative mutants to ensure that the mutant phenotype was heritable and to identify the homozygous mutants.
To measure accurately the level of GUS activity, a quantitative GUS assay was performed on npr1-1 plants and the wild-type BGL2-GUS plants grown in the presence of either SA or INA, or in the absence of both. In the absence of an inducer, the background level of GUS activity was five-fold lower in the npr1-1 mutant than in the wild-type. […] Moreover, the induction by 0.1 mM INA was forty-eight-fold for the wild-type versus five-fold for npr1-1. Thus, while GUS activity in the SA- or INA-treated npr1-1 plants was somewhat induced, the activity was at most only slightly higher than the background level of the untreated wild-type.

[2] = tested on: Pseudomonas syringae pv maculicola ES4326; assay: SA-/INA-induced protection against P.s. maculicola ES4326 infection (disease symptoms); type: in vivo; conditions: 1 mM SA or 0.65 mM INA two days before P.s. maculicola ES4326; for plants with chlorotic lesions: npr1-1 plants; for plants showing slight yellowing: wild-type plants
Protocol: To examine whether the lack of SA- or INA-induced PR gene expression would affect SAR protection against a virulent pathogen infection, fifteen-day-old wild-type and npr1-1 plants were treated with either 1 mM SA or 0.65 mM INA, and two days later were exposed to a P.s. maculicola ES4326 bacterial suspension. […] Chlorotic lesions developed in about ninety percent of the untreated wild-type control plants not pretreated with SA or INA. However, such SA- or INA-induced protection was not observed in npr1-1 mutant plants. Chlorotic lesions were clearly seen in over ninety-percent of untreated and at least eighty-percent of SA- or INA-treated plants. The symptoms on npr1-1 were also more severe than on the wild-type plants.

O=C(O)c1cc(Cl)nc(Cl)c1 [INA, 2,6-dichloroisonicotinic acid]
localization of NPR1-GFP upon induction (NPR1-GFP): exclusively in the nuclei of both the mesophyll cells and the guard cells
induction of PR1 gene expression (PR1 gene; npr1-2 mutant): no induction
induction of PR1 gene expression (PR1 gene; wild-type parental line): induction
decrease in Psm ES4326 growth ([1]; npr1-2 mutant, 0.65 mM INA seventy-two hours prior to infection): ~10 fold
growth of P.s. maculicola ES4326 lower than the untreated control [1]: 1000 times
growth of P.s. maculicola ES4326 [1]: about ten
inhibition of Psm ES4326 growth ([1]; wild-type plants, 0.65 mM INA seventy-two hours prior to infection (OD600=0.001)): Complete inhibition
effect of treatment alone on plants (no infection) (Arabidopsis thaliana): minimal effect
increase in GUS activity compared to the uninduced plants (BGL2-GUS reporter gene; npr1-1 plants): five
increase in GUS activity compared to the uninduced plants (BGL2-GUS reporter gene; wild-type BGL2-GUS plants): forty-eight
plants with chlorotic lesions [2]: at least eighty
plants showing slight yellowing [2]: less than ten

O=C(O)c1ccccc1O [SA, salicylic acid]
localization of NPR1-GFP upon induction (NPR1-GFP): exclusively in the nuclei of both the mesophyll cells and the guard cells
induction of PR1 gene expression (PR1 gene; npr1-2 mutant): only a minor induction
induction of PR1 gene expression (PR1 gene; wild-type parental line): high level of PR1 gene induction
growth of P.s. maculicola ES4326 lower than the untreated control [1]: 1000 times
growth of P.s. maculicola ES4326 [1]: about ten
effect of treatment alone on plants (no infection) (Arabidopsis thaliana): minimal effect
increase in GUS activity compared to the uninduced plants (BGL2-GUS reporter gene; npr1-1 plants): seven
increase in GUS activity compared to the uninduced plants (BGL2-GUS reporter gene; wild-type BGL2-GUS plants): fifty-two
plants with chlorotic lesions [2]: at least eighty
plants showing slight yellowing [2]: less than ten
